Patent US8148431B2, “Osteogenesis promoter containing β-cryptoxanthin as the active ingredient” (Kemin Health, L.C., priority 2002, dated 2012)
Marks after values point to notes of the source that are not given here.

Tests used:
[1] = system: metaphysis tissue of the femur; test: Bone resorption (PTH or prostaglandin E2): bone calcium level in cultured metaphysis tissue; format: cell-based, Wistar male rats
Experimental: The femurs were extracted from rats (Wistar male rats; 4 to 5 weeks old) (purchased from Japan SLC Co., Ltd. and fed with solid Oriental yeast (MF)) under anesthesia with ether under a germfree condition. The femurs were each washed with 0.25 M sucrose solution, and then divided into the diaphysis (cortical bone) and metaphysis (cancellous bone). The bone tissue pieces were cultured in a culture medium (Dulbecco's modified culture medium containing 5% of glucose; serum-free medium) containing. β-cryptoxanthin, etc. at […] in an incubator filled with 5% CO2-95% air for 48 hours. β-cryptoxanthin used was “β-cryptoxanthin” of Extrasynthase Co., cycloheximide used was “Cycloheximide” of Sigma Co. Ltd., β-carotene was “β-carotene” of Sigma ? , xanthine was “Xanthine” of Sigma Co, Ltd., parathormone was “Parathormone” of Sigma Co. Ltd. and prostaglandin E2 was “Prostaglandin E2” of Sigma Co. Ltd. In the control, only the culture medium was used without β-cryptoxanthin or the like.
(§1) Bone calcium level in the bone tissue was determined. After the culture in the incubator, the tissue pieces were washed with 0.25 M sucrose solution and dried and then the bone was weighed. Then concentrated nitric acid was added to the tissue pieces. After the incineration at 120° C. for 12 hours, the bone calcium level was determined with an atomic absorption photometer (“Perkin-Elmer 303” of Perkin-Elmer Co.).
The bone mineral dissolution-inhibiting effect of β-cryptoxanthin was examined. […] PTH also has a pathophysiologic role on the expression of osteoporosis caused by the aging. It is known that prostaglandin E2 also causes physiologic bone mineral dissolution. The diaphysis or metaphysis tissue of the femur was cultured in the presence of 10^−7 M PTH or 10^−5 M prostaglandin E2 for 48 hours and then calcium level in the bone tissue was determined. In another experiment, the culture was conducted in the same manner as that described above in the coexistence of them and β-cryptoxanthin (10^−8 M to 10^−6 M) and then calcium level in the bone tissue was determined. In each test group, the determination was conducted 6 to 8 times and the results were represented by the average value and the standard error. The significant difference was determined by Student's t-test. The result was compared with that of the control. When P value was not higher than 0.01 (*) as compared with the control or it is not higher than 0.1 (#) as compared with that of prostaglandin E2, the results were statistically significant.

[2] = system: rats, femoral diaphysis tissue; test: Oral administration to rats: bone calcium level in diaphysis tissue; format: in vivo, Wistar male rats; settings: for Bone calcium level: diaphysis tissue
Experimental: as §1
(§2) A solution of β-cryptoxanthin in corn oil having one of three kinds of concentration (10, 25 and 50 μg/ml corn oil) was orally administered to rats (Wistar male rats; 4 to 5 weeks old) in an amount/100 g body weight with a probe once a day for 7 days. The rats were sacrificed 24 hours after the final administration. The femurs were excised. The muscles, etc. were taken out and each femur was divided into diaphysis and metaphysis to determine the bone components.
(§3) Tests were conducted to examine whether the bone components are increased by the oral administration of β-cryptoxanthin to rats or not. β-cryptoxanthin was administered for 7 days (10, 25 or 50 μg/100 g body weight/day) and then calcium level in the bone tissue, determination of alkaline phosphatase activity (enzyme for the acceleration of the calcification of bones) and the amount of deoxyribonucleic acid (DNA: index of the number of the cells in the bone tissue) were determined by the same methods as those in Example 1. In each test group, the determination was conducted 6 times and the results were represented by the average value and the standard error. The significant difference was determined by Student's t-test. The result was compared with that of the control. When P value was not higher than 0.01 (*) as compared with the control, the results were statistically significant.

[3] = system: rats, femoral diaphysis tissue; test: Oral administration to rats: bone DNA level in diaphysis tissue; format: in vivo, Wistar male rats; settings: for Bone DNA level: diaphysis tissue
Experimental: (§4) DNA level was determined as an index of the number of cells in the bone tissue. After the culture in an incubator, the tissue pieces were washed with 0.25 M sucrose solution and then the wet weight of them was determined. They were pulverized in 4 ml of 0.1 N NaOH. After the osmosis at 4° C. for 24 hours, the liquid mixture was centrifuged. The supernatant was taken as the sample and determined by a method of Ceriotti et al. (J. Biol. Chem., 241; 34-77, 1951). Namely, 1 ml of concentrated hydrochloric acid and 1 ml of 0.04% indole solution were added to 2 ml of the sample and then the resultant mixture was heated to 100° C. in boiling water. After quenching followed by the extraction with 4 ml of chloroform, the chloroform layer was taken to determine bone DNA level with a spectrophotometer (490 nm).
as §2, §3

[4] = system: rats, femoral metaphysis tissue; test: Oral administration to rats: bone DNA level in metaphysis tissue; format: in vivo, Wistar male rats; settings: for Bone DNA level: metaphysis tissue
Experimental: as §4, §2, §3

[5] = 10, 25 or 50 μg/100 g body weight/day, 7 days
[6] = oral 10 μg/100 g body weight/day for 7 days
[7] = oral 25 μg/100 g body weight/day for 7 days
[8] = oral 50 μg/100 g body weight/day for 7 days

In the case of `CC1=C(/C=C/C(C)=C/C=C/C(C)=C/C=C/C=C(C)/C=C/C=C(C)/C=C/C2=C(C)C[C@@H](O)CC2(C)C)C(C)(C)CCC1` [β-cryptoxanthin], the “Control of prostaglandin E2-caused reduction of calcium level in the bone tissue (in words)” value ([1]; metaphysis tissue, β-cryptoxanthin 10^−5 to 10^−6 M (so in the source) with prostaglandin E2 10^−5 M) was “completely controlled”, the “Control of PTH-caused reduction of calcium level in the metaphysis tissue (in words)” value ([1]; β-cryptoxanthin 10^−8 to 10^−6 M in the presence of PTH) was “significantly controlled” and the “Effect on calcium level in the diaphysis tissue after oral administration (in words)” value [2, 5] was “significantly increased”. For the same compound, the Bone calcium level [2, 6] was 232.8 ± 3.00* mg/g dry weight, the Bone calcium level [2, 7] was 248.3 ± 5.10* mg/g dry weight and the Bone calcium level [2, 8] was 247.5 ± 4.20* mg/g dry weight. For the same compound, the “Effect on DNA in the bone tissue, diaphysis, after oral administration (in words)” value ([3]; 25 or 50 μg/100 g body weight/day, 7 days) was “significantly increased”, the “Bone DNA level” value [3, 6] was 1.95 ± 0.18 mg/g bone wet weight and the “Bone DNA level” value [3, 7] was 3.01 ± 0.23* mg/g bone wet weight. The “Bone DNA level” value [3, 8] was 2.53 ± 0.20* mg/g bone wet weight, the “Effect on DNA in the bone tissue, metaphysis, after oral administration (in words)” value [4, 5] was “significantly increased” and the “Bone DNA level” value [4, 6] was 4.10 ± 0.24* mg/g bone wet weight. For the same compound, the “Bone DNA level” value [4, 7] was 4.25 ± 0.21* mg/g bone wet weight and the “Bone DNA level” value [4, 8] was 4.01 ± 0.18* mg/g bone wet weight.
